Results: EP0385850A2, “Benzimidazole and azabenzimidazole derivatives, process for their preparation, synthesis intermediates, pharmaceutical compositions containing them, useful for the treatment of cardiovascular diseases and duodenal ulcers” (LABORATOIRES UPSA, priority 1989, dated 1990)

Legend:
rats mâles de souche OFA [1] = assay: anti-ulcer activity against a necrotising agent (e.g. absolute ethanol), oral, rat; format: in vivo; settings: v.o., 30 min before necrotising agent, stomachs removed 1 h after, dose reducing lesions by 50 %, determined graphically, read-out: activité anti-ulcère vis à vis d'un agent nécrosant DA 50 Mg/Kg v.o.
Protocol: (§1) Des lots de 10 à 30 rats mâles de souche OFA (Iffa Credo), pesant 160-180 g, sont mis à la diète hydrique 24 h avant l'administration orale du produit étudié. Trente minutes plus tard, un agent ulcérigène médicamenteux ou un agent nécrosant (exemple : éthanol absolu) est administré par voie orale à des doses qui entraînent chez les animaux témoins une ulcération gastrique maximale. Les estomacs sont prélevés, selon le test, respectivement 6 et 1 h après le dernier traitement. Les lésions gastriques sont alors évaluées macroscopiquement (cotation et mesure de l'ampleur des ulcères).
(§2) Ils sont exprimés sous forme de dose active 50 déterminée graphiquement. Cette dose exprime la dose nécessaire pour réduire de 50 % les lésions ulcéreuses observées chez les animaux témoins.

rats mâles de souche OFA [2] = assay: anti-ulcer activity against a non-steroidal anti-inflammatory (ulcerogenic drug), oral, rat; format: in vivo; settings: v.o., 30 min before ulcerogenic drug, stomachs removed 6 h after, dose reducing lesions by 50 %, determined graphically, read-out: activité anti-ulcère vis à vis d'un anti-inflammatoire non stéroïdien DA 50 Mg/Kg v.o.
Protocol: as §1, §2

`C=CCSc1nc2ccc(-n3ccnc3)cc2[nH]1` [Exemple 129, (imidazolyl-1)-5 (allylthio)-2 benzimidazole] showed an ED50 (rats mâles de souche OFA [1]) of 0.33 mg/kg.
For `CSc1nc2ccc(-n3ccnc3)cc2[nH]1` [Exemple 128, (Imidazolyl-1)-5 (méthylthio)-2 benzimidazole], the ED50 (rats mâles de souche OFA [1]) was 4.5 mg/kg and the ED50 (rats mâles de souche OFA [2]) was 18.3 mg/kg.
`Cn1c(=S)[nH]c2ccc(-n3ccnc3)cc21` [Exemple 124, (imidazolyl-1)-5 méthyl-3 benzimidazole thione-2] was tested, and the ED50 (rats mâles de souche OFA [1]) was 4.5 mg/kg.
For `C#CCSc1nc2ccc(-n3ccnc3)cc2[nH]1` [Exemple 130, (Imidazolyl-1)-5 (propargylthio)-2 benzimidazole], the ED50 (rats mâles de souche OFA [1]) was 0.48 mg/kg and the ED50 (rats mâles de souche OFA [2]) was 9.24 mg/kg.
